Values belong to the compound of their own block, whether it stands above or below them.
Assays:
RAR = conditions: Heyman et al. Cell 1992, 68, 397-406; cited from earlier work
RXR/PPAR heterodimers = conditions: Mukherjee et al., Nature 1997, 386, 407-410; WO 97/10819; cited from earlier work
ob/ob and db/db mice = conditions: Mukherjee et al., Nature 1997; cited from earlier work

SMILES: CC1=C(/C=C/C(C)=C\C=C\C(C)=C\C(=O)O)C(C)(C)CCC1 [9-cis retinoic acid]
activation of RAR (RAR): activates both RXR and RAR

SMILES: Cc1cc2c(cc1C1(c3ccc(C(=O)O)cn3)CC1)C(C)(C)CCC2(C)C [LG 100268]
activation of RXR/PPAR heterodimers (RXR/PPAR heterodimers): activate RXR/PPAR heterodimers
glucose, insulin and triglyceride levels (ob/ob and db/db mice): reduction in glucose, insulin and triglyceride levels

melting point: 274.5 to 275.2 °C
SMILES: Cc1cc2c(cc1C13CC1CCC3=Cc1ccc(C(=O)O)cc1)C(C)(C)CCC2(C)C (stereo not shown) [Example 1, 4-[1-(3,5,5,8,8-Pentamethyl-5,6,7,8-tetrahydro-naphthalen-2-yl)-bicyclo[3.1.0]hex-2-ylidenemethyl]-benzoic Acid]
